The values that follow come from PMC10797614, “MYC-Targeting Inhibitors Generated from a Stereodiversified Bicyclic Peptide Library” (Journal of the American Chemical Society, 2024).

*1 amine or outer side, *2 acyl side, *3 side chain or, on linkers, in order; H or OH if unused. Where a SMILES comes first, the peptide text is derived from it. Bridges are numbered along the chain shown (N, C = ends). X1 = O=C([C@@H]1C[C@H](C=CCO[*:3])C[C@@H]1C=CCO[*:1])[*:2]

One data set deals with U87 cells. Kind of data set: Cell viability test (resazurin), U87. Type of data set: cell-based, human. As to conditions: peptide-loaded DOTAP/DOPE liposomes vs empty liposomes, 48 hours, resazurin fluorescence. On the procedure: (§1) Liposome loading capacity quantification
(§2) 200 μL of the liposome solution (4 mg/mL) was dried under vacuum and extracted with 50 μL of DMSO. The obtained solution was analyzed on a reverse-phase HPLC and the corresponding peptide peak was identified by mass spectrometry. The peptide concentration was then determined by comparing the peak area to that of a standard solution. The loading capacities were calculated accordingly.
Cells were seeded in a 96-well plate at 4 k/well and incubated overnight. Afterward, the cells were washed with complete media and treated with varying concentrations of peptide-loaded liposome or empty liposome. The final media volume was 200 μL in each well. The cells were treated for 48 hours and then washed with fresh media to remove residue peptides or liposomes. For a single well, Resazurin (10 μg/mL in PBS) mixed with 200 μL of fresh cell media was added, and the plate was incubated at 37 °C for 3 hours. The 96-well plate was shaken for 15 min on an orbital mixer in dark, and the fluorescence (540 nm excitation, 590 nm emission) intensities were read by a […]
(§3) U87 cells were detached by trypsin and resuspended in 5 mL of PBS(1x). […] The protein concentrations were determined by BCA assay.
(§4) To prepare the sample for the cellular thermal shift assay, the quantified cell lysate was adjusted to a final concentration of 1.481 mg/mL with lysis buffer. […]

The target of another data set is T1, MYC (Homo sapiens, UniProt P01106).
T1 construct: made in house; host or cells: E. coli BL21(DE3)
T1 sequence (P01106 16-454): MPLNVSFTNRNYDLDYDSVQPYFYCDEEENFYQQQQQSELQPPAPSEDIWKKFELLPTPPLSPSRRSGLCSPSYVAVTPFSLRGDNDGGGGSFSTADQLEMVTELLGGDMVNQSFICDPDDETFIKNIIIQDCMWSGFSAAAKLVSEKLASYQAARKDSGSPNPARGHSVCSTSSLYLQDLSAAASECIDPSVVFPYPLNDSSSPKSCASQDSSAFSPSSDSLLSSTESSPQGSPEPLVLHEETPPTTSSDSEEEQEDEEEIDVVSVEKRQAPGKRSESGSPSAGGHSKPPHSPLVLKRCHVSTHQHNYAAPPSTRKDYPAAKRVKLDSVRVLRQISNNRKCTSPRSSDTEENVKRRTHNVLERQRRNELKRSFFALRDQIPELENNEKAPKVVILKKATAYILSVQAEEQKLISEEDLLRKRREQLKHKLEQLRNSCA
Kind of data set: Cellular thermal shift assay (CETSA) with U87 cell lysate. Type of data set: binding. As to conditions: U87 cell lysate 1.481 mg/mL, 195 μL lysate + 19.5 μL peptide (1 mM in PBS); 50 to 65 °C for 3 min; Western blot; versus control. The protocol:
To validate that NT-B2R could bind to MYC in complex biological environments, we performed cellular thermal shift assays using U87 cell lysates[34] (Figure 4A). U87 is a human glioblastoma cell line with known dependence on MYC activities.[35]−[37]
as §1, §2
Cells were seeded in a 96-well plate at 4 k/well and incubated overnight. Afterward, the cells were washed with complete media and treated with varying concentrations of peptide-loaded liposome or empty liposome. The final media volume was 200 μL in each well. […] The 96-well plate was shaken for 15 min on an orbital mixer in dark, and the fluorescence (540 nm excitation, 590 nm emission) intensities were read by a […]
as §3, §4
In general terms: A western blot detects proteins with antibodies after separation by electrophoresis.

For data set [1] the following is noted: free peptide; liposomes therefore used as delivery vehicles.
The subject of data set [2] is MYC and phosphor-MYC (p-MYC, T58). Kind of data set: Western blot of MYC and phosphor-MYC levels in treated U87 cells. Type of data set: cell-based, human. The following applies: liposome-delivered peptide. The text has this:
We then evaluated the biological effects of NT-B2R in cells.

Regarding `CC(C)C[C@@H]1NC(=O)[C@H](CCCNC(=N)N)NC(=O)[C@@H]2CCCCNC(=O)[C@@H]3C[C@H](C=CCOC(=O)CC[C@@H](C(N)=O)NC1=O)C[C@@H]3C=CCOC(=O)CC[C@H](N)C(=O)N[C@@H](Cc1c[nH]c3ccccc13)C(=O)N1CCC[C@H]1C(=O)N[C@@H](Cc1c[nH]cn1)C(=O)N[C@@H](CCCNC(=N)N)C(=O)N2` [NT-B2R] (H-EWPHRKRLE-NH2; linker 1-6-9 via X1; N-terminus and C-terminus assumed), in the data set with U87 cells, the “metabolic activity and proliferation (viability), U87” value is “decreased metabolic activity and proliferation”. Further, the “increase of MYC melting temperature, CETSA” value on MYC is listed as about 2 °. Besides, the “cell permeability (in words)” value in data set [1] is “not cell-permeable”. Also, the “expression and phosphorylation levels of MYC (Western blot)” value in data set [2] was “did not alter”.
